Columns and labels:
[1] = cited from earlier work
[2] = Thermostability test of preparation, Test Example 1 (60° C., HPLC); type: physicochemical; details: for Residual ratio(%) of α-lipoic acid: 60° C.
Method: The α-lipoic acid-MgCO3 nanoparticles produced in Example 1A, and the α-lipoic acid nanoparticles produced in Comparative Example 1A without adding magnesium chloride and sodium carbonate were respectively heated at 60° C., and the amounts of α-lipoic acid in the sample after one hour of heating and after 3 hours of heating were analyzed by HPLC. As a control, a reagent α-lipoic acid was used. The amount of α-lipoic acid after heating was divided by the amount of α-lipoic acid before heating, and the result was multiplied by 100 such that the residual ratio of α-lipoic acid was calculated. Symbol Δ represents the results of control reagent of α-lipoicacid, symbol ▪ represents the results of the α-lipoic acid dispersion liquid of Comparative Example 1, and symbol □ represents the results of the α-lipoic acid-MgCO3 nanoparticles of Example 1A.

3T3-L1 cells [3] = test: Differentiation of preadipocytes, lipid accumulation by Oil Red O, Test Example 7; type: cell-based; details: added to adipocyte differentiation induction medium, 100, 250 or 500 μM α-lipoic acid, 4 days; nanoparticles of Example 20A
Method: 1.5 ml of D-MEM medium (D-MEM medium supplemented with 10% FCS, 100 units/ml of penicillin, and 100 μg/ml of streptomycin, all at final concentrations) was added to a plastic petri dish having a diameter of 3.5 cm. To this, 5.0×10^4 cells of 3T3-L1 cells, which are preadipocytes, were suspended, and precultured for 3 days to result in a confluent state. Thereafter, the medium was replaced with 3 ml of an adipocyte differentiation induction medium (D-MEM supplemented with 10% FCS, 100 units/ml of penicillin, 100 μg/ml of streptomycin, 5 μg/ml of insulin, 0.25 μM of dexamethasone, and 0.5 mM of isobutyl-methylxanthine (IBMX), all at final concentrations). After another 2 days, the medium was replaced with 3 ml of the adipocyte differentiation induction medium of the same composition, and then the culturing was carried out for 2 days. Thus, the culturing in the adipocyte differentiation induction medium was carried out for 4 days in total. During this culturing, an α-lipoic acid solution or the α-lipoic acid-MgCO3 nanoparticle solution of Example 20A was added to the adipocyte differentiation induction medium to result in 0, 100, 250 or 500 μM of α-lipoic acid concentration. […]
The amount of accumulated lipids in the cultured cells thus obtained was measured. […] The whole amount of this solution was recovered, and the absorbance at a wavelength of 520 nm was measured with a spectrophotometer.

3T3-L1 cells [4] = test: Dedifferentiation of mature adipocytes, lipid accumulation by Oil Red O, Test Example 8; type: cell-based; details: added to adipocyte maturation medium, 100, 250 or 500 μM α-lipoic acid, 4 days; nanoparticles of Example 20A
Method: 1.5 ml of D-MEM medium (D-MEM medium supplemented with 10% FCS, 100 units/ml of penicillin, and 100 μg/ml of streptomycin, all at final concentrations) was added to a plastic petri dish having a diameter of 3.5 cm. To this, 5.0×10^4 cells of 3T3-L1 cells, which are preadipocytes, were suspended, and precultured for 3 days to result in a confluent state. Thereafter, the medium was replaced with 3 ml of an adipocyte differentiation induction medium (D-MEM medium supplemented with 10% FCS, 100 units/ml of penicillin, 100 μg/ml of streptomycin, 5 μg/ml of insulin, 0.25 μM of dexamethasone, and 0.5 mM of isobutyl-methylxanthine, all at final concentrations), and the culturing was carried out for 4 days to induce the differentiation into adipocytes. Thereafter, the medium was replaced with an adipocyte maturation medium (D-MEM medium supplemented with 10% FCS, 100 units/ml of penicillin, 100 μg/ml of streptomycin, and 5 μg/ml of insulin, all at final concentrations), and the culturing was carried out for 7 days. Thereafter, the medium was replaced with a test medium, and culturing was carried out for another 4 days. […]
The amount of accumulated lipids in the cultured cells thus obtained was measured. […] The total amount of this solution was recovered, and the absorbance at a wavelength of 520 nm was measured with a spectrophotometer.

[5] = Improvement in sulfurous odor, Test Example 2 (left indoors under sunlight); type: physicochemical; details: 0.1% α-lipoic acid in water, after two weeks
Text: The paste after freeze-drying of the α-lipoic acid-MgCO3 nanoparticles produced in Example 1A, and the paste after freeze-drying of the α-lipoic acid nanoparticles produced in Comparative Example 1A without adding magnesium chloride and sodium carbonate, were respectively dispersed in distilled water such that the final concentration of α-lipoic acid reached 0.1%. The dispersions were placed in transparent test tubes made of resin, and the test tubes were left to stand indoors under sunlight. As a control, an aqueous dispersion liquid having α-lipoic acid dissolved in water (final concentration of α-lipoic acid 0.1%), which was prepared by adding an alkali (5M NaOH) to reagent α-lipoic acid, and thereby adjusting the pH to 7 to 7.5, was also left to stand in the same manner.

SMILES | pKa value [1] | Residual ratio(%) of α-lipoic acid ([2]; heating time 0 hrs) [%] | Residual ratio(%) of α-lipoic acid ([2]; heating time 1 hr) [%] | Residual ratio(%) of α-lipoic acid ([2]; heating time 3 hrs) [%] | reduction of the amount of α-lipoic acid ([2]; after 3 hours of heating at 60° C.) | accumulation of lipids in cells (Oil Red O, 520 nm) (3T3-L1 cells [3]) | amount of lipid accumulation in mature adipocytes (Oil Red O, 520 nm) (3T3-L1 cells [4]) | sulfurous odor [5]
CC1=C(/C=C/C(C)=C/C=C/C(C)=C/C(=O)O)C(C)(C)CCC1 [retinoic acid] | 6.4 | – | – | – | – | – | – | –
O=C(O)CCCCC1CCSS1 (stereo not drawn) [α-lipoic acid] | 4.76 | 100 | 50.51 | 44.20 | about 55% | reduction of the accumulation of lipids | almost indifferent from that of the non-added group | characteristic sulfurous odor strongly emanated

Reference: patent US9079874B2, “α-Lipoic acid nanoparticles and methods for preparing thereof” (Ezaki Glico Co., Ltd., priority 2007, dated 2015)
